{"source": "patent US9078874B2", "about": "“Composition and method for treating cognitive impairments in down syndrom subjects” (Centre National De La Recherche Scientifique—CNRS, priority 2009, dated 2015)", "key": {"euploid and Ts65Dn mice [1]": {"test_system": "euploid and Ts65Dn mice", "assay": "Pro-convulsant effects after pentylenetetrazol (45 mg/kg)", "format": "in vivo", "conditions": "mouse, in vivo, 50 min", "method": "For testing the pro-convulsant effects of α5IA, a sub-convulsant dose of pentylenetetrazole (45 mg/kg i.p.) that induces myoclonic convulsions in about 50% of mice was injected i.p. 20 min after injection of α5IA (50 mg/kg) or placebo.\nThe proconvulsant action of the α5IA was measured after injection of a subconvulsive dose of pentylenetetrazole. Mice were injected with either vehicle or the α5IA (50 mg/kg i.p) and 20 min later they received an intraperitoneal injection of 45 mg/kg of pentylenetetrazole. […] Six to 7 mice were used for each condition. The latency to the first myoclonic jerk episode and the convulsion grade were recorded during a 1200-s period of observation. Four grades were empirically determined: Grade 0: no effect; grade 1: tail up and curved; grade 2: reversed tail and convulsive shivers; grade 3: myoclonic convulsions.\nWe then tested the proconvulsant effect of α5IA by injecting it (50 mg/kg) 20 min before a sub-convulsant dose of pentylenetetrazol (45 mg/kg) that induces myoclonic convulsions in about 50% of mice."}, "euploid and Ts65Dn mice [2]": {"test_system": "euploid and Ts65Dn mice", "assay": "Anxiety-related behavior in the elevated plus maze", "format": "in vivo", "conditions": "for Time spent in the open arms of the elevated plus-maze: acute, one single 15 mg/kg i.p. injection", "method": "FIG. 6 depicts results from an anxiety-related behavior study of α5IA. Anxiety was assessed in the elevated plus maze, in both euploid and Ts65Dn mice under placebo or α5IA. Time spent in the open arms of the elevated plus-maze was taken as a measure of anxiety levels.\nModulation of anxiety-related behaviors by α5IA was more precisely assessed using an elevated-plus maze, in a total of 42 mice, 30 min after i.p. injections (placebo: 11 euploid and 7 Ts65Dn mice; α5IA (15 mg/kg): 14 euploid and 10 Ts65Dn mice). The maze was constructed of black perspex (length, 28 cm; width, 5 cm; height from floor, 40 cm; overall luminosity in open arms: 70 1×) with two opposing open arms, and two enclosed arms equipped with three 16 cm high walls. Mice were placed in the central region of the maze and behavior was recorded for a 5 min period using the Any. Maze software that automatically calculates the time spent in the different parts of the maze (e.g., open and enclosed arms).\nTo explore the potential adversity of chronic injections of α5IA (5 mg/kg), another group of euploid mice was treated for two weeks (5 injections/week; 5 α5IA treated mice; 5 placebo-treated mice). After repeated treatment, these mice were evaluated in the elevated plus maze as described above."}, "euploid and Ts65Dn mice [3]": {"test_system": "euploid and Ts65Dn mice", "assay": "Locomotor activity and anxiety in the open field", "format": "in vivo", "method": "FIG. 7 depicts results from a locomotor activity and anxiety study of α5IA in Ts65Dn and euploid mice in the open field. Effects of α5IA (5 mg/kg) were evaluated on locomotion and anxiety in the open field.\nLocomotor activity was evaluated in a total of 33 mice 30 min after i.p. injections (placebo: 8 euploid and 7 Ts65Dn mice; α5IA (5 mg/kg): 10 euploid and 8 Ts65Dn mice). Locomotion was measured in a square open field (50 cm×50 cm; luminosity: 30 lux) with black walls 30 cm high. Briefly, each animal was placed in the center of the arena and allowed to freely explore it for 10 min. Horizontal activity was monitored using the Any-Maze software. Time spent in the 10-cm wide peripheral zone and in the complementary 30 cm×30 cm central zone was recorded to evaluate anxiety."}, "euploid and Ts65Dn mice [4]": {"test_system": "euploid and Ts65Dn mice", "assay": "Novel object recognition (NOR) task", "format": "in vivo", "method": "The testing protocol is a variant of the testing method according to Fernandez et al. 2007. The Object recognition protocol used to study learning and memory was performed on a 10 minutes period between the first presentation of the objects and the change of one object. Euploid and Ts65Dn mice were tested with or without α5IA treatment. The apparatus consisted of a black square arena (50×50 cm) located in a room under weak controlled luminosity (4-6 Lux) and constant 60 dB white noise. The first day, all mice (16 euploid and 16 Ts65Dn mice) were handled by the experimenter in the animal facility 2×3 min to familiarize them with human contact. On day 2, mice were placed for 20 min in the empty arena for getting used to the apparatus and test room. On day 3, four identical objects were placed symmetrically in the corners of the arena, 14 cm from the side walls. […]\nDuring all open field sessions, mice were monitored using a videotracking system (Any-Maze™). Object exploration was manually scored with an ethological keyboard and defined as the orientation of the nose to the object at a distance<6 cm. […]\nFor the retention phase, the percent of time exploring familiar vs. novel objects was calculated to assess memory performance (a score of 50% corresponding to equal exploration times of the two objects indicated no object memory). […]\nDiscrimination ratio was calculated using the formula: […]"}, "receptor": {"test_system": "receptor", "conditions": "rats, 3 mg/kg, cited from earlier work"}}, "note": "Read-outs that look alike come from different tables or passages of the source.", "data": [{"molecule": "Cc1cc(-c2nnc3c4ccccc4c(OCc4cn(C)nn4)nn23)no1", "note": "[α5IA, 3-(5-methylisoxazol-3-yl)-6-[(1-methyl-1,2,3-triazol-4-yl)methyloxy]-1,2,4-triazolo[3,4-a]phthalazine]", "values": [{"measurement": "Convulsant mice rate", "setting": "euploid and Ts65Dn mice [1]; Ts65Dn", "result": "4/7"}, {"measurement": "Convulsant mice rate", "setting": "euploid and Ts65Dn mice [1]; euploid", "result": "3/6"}, {"measurement": "Time spent in the open arms of the elevated plus-maze", "setting": "euploid and Ts65Dn mice [2]; Ts65Dn mice, p<0.05", "result": "significantly reduced the time spent in open arms"}, {"measurement": "Time spent in the open arms of the elevated plus-maze", "setting": "euploid and Ts65Dn mice [2]; euploid mice", "result": "did not modify the behavior"}, {"measurement": "anxiety levels in the elevated plus maze", "setting": "euploid and Ts65Dn mice [2]; semi-chronic, 5 mg/kg 5 times a week for 2 weeks, euploid mice, p>0.73", "result": "did not alter the anxiety levels"}, {"measurement": "locomotor activity and anxiety (periphery-to-center exploration ratio) in the open field", "setting": "euploid and Ts65Dn mice [3]; 5 mg/kg, Ts65Dn and euploid mice", "result": "did not alter locomotor activity and anxiety"}, {"measurement": "horizontal activity (traveled distances)", "setting": "euploid and Ts65Dn mice [3]; single injection 5 mg/kg, euploid and Ts65Dn mice", "result": "did not modify the gross locomotor activity"}, {"measurement": "object recognition performance compared to wild-type mice receiving a placebo", "setting": "euploid and Ts65Dn mice [4]; Ts65Dn mice", "result": "above-normal object recognition performance"}, {"measurement": "recognition performance", "setting": "euploid and Ts65Dn mice [4]; i.p. 5 mg/kg, 30 min before acquisition, both euploid and Ts65Dn mice", "result": "largely improved their recognition performance"}, {"measurement": "receptor occupancy", "setting": "receptor; after 2 h", "result": 80, "unit": "%"}, {"measurement": "receptor occupancy", "setting": "receptor; after 8 h", "result": 60, "unit": "%"}]}]}
